Reference: ChEMBL document CHEMBL5729371, “Compound functioning as bromodomain protein inhibitor, and composition” (2022)

Legend:
[1] = target: T1, Bromodomain-containing protein 4 (Homo sapiens, UniProt O60885); assay: (§1) Inhibitory Activity Assay: The assays of BRD4 (D1) and BRD4 (D2) were conducted in a 384-well polystyrene plate. The test compounds were first serially diluted in DMSO and the test compound/DMSO were transferred to 384-well plates. The final concentration of DMSO in the assay was 0.1%. 2 volumes of protein/peptide mixture were added into 384-well plates, then 2 volumes of assay mixture were added, and shake for 30 s. The plate was incubated at room temperature for 2 h. Then the HTRF signal on EnVision was readed.
[2] = target: T1, Bromodomain-containing protein 4; assay: as §1; remark: listed apart in the source

Structure (SMILES) | IC50 [1] [nM] | IC50 [2] [nM]
Cc1nc2ncc(-c3cn(C)c(=O)c4[nH]ccc34)nc2n1Cc1ccc(Cl)cc1 | 6.9 | 1.7
CCS(=O)(=O)Nc1cc(-c2cn(C)c(=O)c3[nH]ccc23)cc2c1nc(C)n2Cc1ccc(Cl)cc1 | 1 | 0.4
Cc1nc2ncc(-c3cn(C)c(=O)c4[nH]ccc34)cc2n1Cc1cccc(Cl)c1 | 4.2 | 1.4
